Data taken from PubChem BioAssay (NCI).
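These data come from cells grown in 96-well plates and exposed to compound for 48 hours at five concentrations. GI50: concentration for 50% inhibition of growth. Definition used: TGI = concentration required for complete inhibition of growth.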

Key:
Experiment in all cases: NCI anticancer screen, dose series, 48 h
M14 melanoma = tested on: M14 melanoma
MCF7 breast = tested on: MCF7 breast
KM12 colon = tested on: KM12 colon
U251 CNS = tested on: U251 CNS
PC-3 prostate = tested on: PC-3 prostate
786-0 renal = tested on: 786-0 renal
A549 NSCLC = tested on: A549 NSCLC
CAKI-1 renal = tested on: CAKI-1 renal
OVCAR-8 ovarian = tested on: OVCAR-8 ovarian
OVCAR-4 ovarian = tested on: OVCAR-4 ovarian
UACC-257 melanoma = tested on: UACC-257 melanoma
SW-620 colon = tested on: SW-620 colon
UACC-62 melanoma = tested on: UACC-62 melanoma
UO-31 renal = tested on: UO-31 renal
HOP-62 NSCLC = tested on: HOP-62 NSCLC
RXF 393 renal = tested on: RXF 393 renal
HS 578T breast = tested on: HS 578T breast
NCI-H226 lung = tested on: NCI-H226 lung
HCT-15 colon = tested on: HCT-15 colon
MALME-3M melanoma = tested on: MALME-3M melanoma
ACHN renal = tested on: ACHN renal
SK-MEL-28 melanoma = tested on: SK-MEL-28 melanoma
T-47D breast = tested on: T-47D breast
HOP-92 NSCLC = tested on: HOP-92 NSCLC
SF-539 CNS = tested on: SF-539 CNS
SNB-19 CNS = tested on: SNB-19 CNS
SK-OV-3 ovarian = tested on: SK-OV-3 ovarian
IGROV1 ovarian = tested on: IGROV1 ovarian
NCI-H522 lung = tested on: NCI-H522 lung
NCI-H460 lung = tested on: NCI-H460 lung
SNB-75 CNS = tested on: SNB-75 CNS
HL-60(TB) leukemia = tested on: HL-60(TB) leukemia
HCC-2998 colon = tested on: HCC-2998 colon
SF-268 CNS = tested on: SF-268 CNS
SN12C renal = tested on: SN12C renal
NCI-H23 lung = tested on: NCI-H23 lung
HCT-116 colon = tested on: HCT-116 colon
HT29 colon = tested on: HT29 colon
SK-MEL-5 melanoma = tested on: SK-MEL-5 melanoma
CCRF-CEM leukemia = tested on: CCRF-CEM leukemia
LOX IMVI melanoma = tested on: LOX IMVI melanoma
OVCAR-5 ovarian = tested on: OVCAR-5 ovarian
COLO 205 colon = tested on: COLO 205 colon
A498 renal = tested on: A498 renal
DU-145 prostate = tested on: DU-145 prostate
SK-MEL-2 melanoma = tested on: SK-MEL-2 melanoma
MOLT-4 leukemia = tested on: MOLT-4 leukemia
MDA-MB-231 breast = tested on: MDA-MB-231 breast
TK-10 renal = tested on: TK-10 renal
BT-549 breast = tested on: BT-549 breast
RPMI-8226 leukemia = tested on: RPMI-8226 leukemia
SF-295 CNS = tested on: SF-295 CNS
MDA-MB-435 = tested on: MDA-MB-435
K-562 leukemia = tested on: K-562 leukemia
NCI/ADR-RES ovarian = tested on: NCI/ADR-RES ovarian
SR leukemia = tested on: SR leukemia
OVCAR-3 ovarian = tested on: OVCAR-3 ovarian

Cn1cc(C2=C(c3cn(C)c4cc(C(=O)O)ccc34)C(=O)NC2=O)c2ccccc21
GI50 (M14 melanoma): > 25 µM | TGI (M14 melanoma): > 25 µM | GI50 (MCF7 breast): > 25 µM | TGI (MCF7 breast): > 25 µM | GI50 (KM12 colon): > 25 µM | TGI (KM12 colon): > 25 µM | GI50 (U251 CNS): > 25 µM | TGI (U251 CNS): > 25 µM | GI50 (PC-3 prostate): > 25 µM | TGI (PC-3 prostate): > 25 µM | GI50 (786-0 renal): > 25 µM | TGI (786-0 renal): > 25 µM | GI50 (A549 NSCLC): > 25 µM | TGI (A549 NSCLC): > 25 µM | GI50 (CAKI-1 renal): > 17.2 µM | TGI (CAKI-1 renal): > 25 µM | GI50 (OVCAR-8 ovarian): > 25 µM | TGI (OVCAR-8 ovarian): > 25 µM | GI50 (OVCAR-4 ovarian): > 25 µM | TGI (OVCAR-4 ovarian): > 25 µM | GI50 (UACC-257 melanoma): > 25 µM | TGI (UACC-257 melanoma): > 25 µM | GI50 (SW-620 colon): > 25 µM | TGI (SW-620 colon): > 25 µM | GI50 (UACC-62 melanoma): > 25 µM | TGI (UACC-62 melanoma): > 25 µM | GI50 (UO-31 renal): > 25 µM | TGI (UO-31 renal): > 25 µM | GI50 (HOP-62 NSCLC): > 25 µM | TGI (HOP-62 NSCLC): > 25 µM | GI50 (RXF 393 renal): > 19.8 µM | TGI (RXF 393 renal): > 25 µM | GI50 (HS 578T breast): 5.86 µM | TGI (HS 578T breast): > 25 µM | GI50 (NCI-H226 lung): > 25 µM | TGI (NCI-H226 lung): > 25 µM | GI50 (HCT-15 colon): > 25 µM | TGI (HCT-15 colon): > 25 µM | GI50 (MALME-3M melanoma): > 25 µM | TGI (MALME-3M melanoma): > 25 µM | GI50 (ACHN renal): > 25 µM | TGI (ACHN renal): > 25 µM | GI50 (SK-MEL-28 melanoma): > 25 µM | TGI (SK-MEL-28 melanoma): > 25 µM | GI50 (T-47D breast): 21.1 µM | TGI (T-47D breast): > 25 µM | GI50 (HOP-92 NSCLC): > 25 µM | TGI (HOP-92 NSCLC): > 25 µM | GI50 (SF-539 CNS): > 25 µM | TGI (SF-539 CNS): > 25 µM | GI50 (SNB-19 CNS): > 25 µM | TGI (SNB-19 CNS): > 25 µM | GI50 (SK-OV-3 ovarian): > 25 µM | TGI (SK-OV-3 ovarian): > 25 µM | GI50 (IGROV1 ovarian): > 25 µM | TGI (IGROV1 ovarian): > 25 µM | GI50 (NCI-H522 lung): > 12.1 µM | TGI (NCI-H522 lung): > 20.1 µM | GI50 (NCI-H460 lung): > 25 µM | TGI (NCI-H460 lung): > 25 µM | GI50 (SNB-75 CNS): 4.96 µM | TGI (SNB-75 CNS): > 25 µM | GI50 (HL-60(TB) leukemia): > 25 µM | TGI (HL-60(TB) leukemia): > 25 µM | GI50 (HCC-2998 colon): > 25 µM | TGI (HCC-2998 colon): > 25 µM | GI50 (SF-268 CNS): > 25 µM | TGI (SF-268 CNS): > 25 µM | GI50 (SN12C renal): > 25 µM | TGI (SN12C renal): > 25 µM | GI50 (NCI-H23 lung): > 25 µM | TGI (NCI-H23 lung): > 25 µM | GI50 (HCT-116 colon): > 25 µM | TGI (HCT-116 colon): > 25 µM | GI50 (HT29 colon): > 25 µM | TGI (HT29 colon): > 25 µM | GI50 (SK-MEL-5 melanoma): > 25 µM | TGI (SK-MEL-5 melanoma): > 25 µM | GI50 (CCRF-CEM leukemia): > 20.4 µM | TGI (CCRF-CEM leukemia): > 25 µM | GI50 (LOX IMVI melanoma): > 13.9 µM | TGI (LOX IMVI melanoma): > 25 µM | GI50 (OVCAR-5 ovarian): > 25 µM | TGI (OVCAR-5 ovarian): > 25 µM | GI50 (COLO 205 colon): > 25 µM | TGI (COLO 205 colon): > 25 µM | GI50 (A498 renal): > 12 µM | TGI (A498 renal): > 25 µM | GI50 (DU-145 prostate): > 25 µM | TGI (DU-145 prostate): > 25 µM | GI50 (SK-MEL-2 melanoma): > 15.5 µM | TGI (SK-MEL-2 melanoma): 25 µM | GI50 (MOLT-4 leukemia): > 25 µM | TGI (MOLT-4 leukemia): > 25 µM | GI50 (MDA-MB-231 breast): > 25 µM | TGI (MDA-MB-231 breast): > 25 µM | GI50 (TK-10 renal): > 25 µM | TGI (TK-10 renal): > 25 µM | GI50 (BT-549 breast): > 25 µM | TGI (BT-549 breast): > 25 µM | GI50 (RPMI-8226 leukemia): > 25 µM | TGI (RPMI-8226 leukemia): > 25 µM | GI50 (SF-295 CNS): > 25 µM | TGI (SF-295 CNS): > 25 µM | GI50 (MDA-MB-435): > 25 µM | TGI (MDA-MB-435): > 25 µM | GI50 (K-562 leukemia): > 25 µM | TGI (K-562 leukemia): > 25 µM | GI50 (NCI/ADR-RES ovarian): > 25 µM | TGI (NCI/ADR-RES ovarian): > 25 µM | GI50 (SR leukemia): > 13.4 µM | TGI (SR leukemia): > 25 µM | GI50 (OVCAR-3 ovarian): > 25 µM | TGI (OVCAR-3 ovarian): > 25 µM
